Experimental data from patent US8716292B2, “Riminophenazines with 2-(heteroaryl)amino substituents and their anti-microbial activity” (priority 2010, dated 2014).
≈ marks a conversion by molar mass, not a printed value.

System: Mycobacterium tuberculosis H37Rv strains
Test: In vitro assay for antimicrobial susceptibility (microplate Alamar blue MIC)
Type: cell-based
Conditions: Mycobacterium tuberculosis, H37RV, in vitro, Mycobacterium tuberculosis H37Rv strains; read-out: MIC (μg/mL) against H37Rv

Row | Structure (SMILES) | MIC [µg/mL]
1 | Cc1ccc(Nc2cc3nc4ccccc4n(-c4ccccc4)c-3c/c2=N\C2CCOCC2)cn1 [TBI-070, 5-Phenyl-3-(4-tetrahydropyranyl)imino-2-(6-methyl-3-pyridyl)amino-3,5-dihydrophenazine] | 0.08 (≈ 0.173 µM)
2 | COC1CCC(/N=c2\cc3n(-c4ccccc4)c4ccccc4nc-3cc2Nc2ccc(C)nc2)CC1 (stereo not shown) [TBI-072, 5-Phenyl-3-(4-methoxycyclohexyl)imino-2-(6-methyl-pyridyl)amino-3,5-dihydrophenazine] | 0.091 (≈ 0.186 µM)
3 | Cc1ncccc1Nc1cc2nc3ccccc3n(-c3ccccc3)c-2c/c1=N\C(C)C [TBI-073, 5-Phenyl-3-(1-methylethyl)imino-2-(2-methyl-3-pyridyl)amino-3,5-dihydrophenazine] | 0.058 (≈ 0.138 µM)
4 | Cc1ncccc1Nc1cc2nc3ccccc3n(-c3ccccc3)c-2c/c1=N\C1CCOCC1 [TBI-075, 5-Phenyl-3-(4-tetrahydropyranyl)imino-2-(2-methyl-3-pyridyl)amino-3,5-dihydrophenazine] | 0.328 (≈ 0.711 µM)
5 | COC1CCC(/N=c2\cc3n(-c4ccccc4)c4ccccc4nc-3cc2Nc2cccnc2C)CC1 (stereo not shown) [TBI-076] | 0.042 (≈ 0.0858 µM)
6 | Cc1ncccc1Nc1cc2nc3ccccc3n(-c3ccccc3)c-2c/c1=N\C1CCCCC1 [TBI-077, 5-Phenyl-3-cyclohexylimino-2-(2-methyl-3-pyridyl)amino-3,5-dihydrophenazine] | 0.016 (≈ 0.0348 µM)
7 | C/N=c1\cc2n(-c3ccccc3)c3ccccc3nc-2cc1Nc1cccnc1C [TBI-078] | 0.019 (≈ 0.0485 µM)
8 | COc1ncccc1Nc1cc2nc3ccccc3n(-c3ccccc3)c-2c/c1=N\C1CCCCC1 [TBI-079, 5-Phenyl-3-cyclohexylimino-2-(2-methoxy-3-pyridyl)amino-3,5-dihydrophenazine] | 0.068 (≈ 0.143 µM)
9 | Cc1ccc(Nc2cc3nc4ccccc4n(-c4ccccc4)c-3c/c2=N\C2CCCCC2)cn1 [TBI-080, 5-Phenyl-3-cyclohexylimino-2-(6-methyl-3-pyridyl)amino-3,5-dihydrophenazine] | 0.243 (≈ 0.529 µM)
10 | Cc1ccc(Nc2cc3nc4ccccc4n(-c4cccc(Cl)c4)c-3c/c2=N\C2CCOCC2)cn1 [TBI-80A, 5-(3-Chlorophenyl)-3-(4-tetrahydropyranyl)imino-2-(6-methyl-3-pyridyl)amino-3,5-dihydrophenazine] | 0.125 (≈ 0.252 µM)
11 | Cc1ccc(Nc2cc3nc4ccccc4n(-c4cccc(Cl)c4)c-3c/c2=N\C2CCCCC2)cn1 [TBI-80B, 5-(3-Chlorophenyl)-3-cyclohexylimino-2-(6-methyl-3-pyridyl)amino-3,5-dihydrophenazine] | 0.125 (≈ 0.253 µM)
12 | COCC(COC)/N=c1\cc2n(-c3cccc(Cl)c3)c3ccccc3nc-2cc1Nc1ccc(C)nc1 [TBI-80C, 5-(3-Chlorophenyl)-3-(1,3-dimethoxyisopropyl)imino-2-(6-methyl-3-pyridyl)amino-3,5-dihydrophenazine] | 0.327 (≈ 0.636 µM)
13 | Cc1cncc(Nc2cc3nc4ccccc4n(-c4ccccc4)c-3c/c2=N\C(C)C)c1 [TBI-081, 5-Phenyl-3-(1-methylethyl)imino-2-(5-methyl-3-pyridyl)amino-3,5-dihydrophenazine] | 0.117 (≈ 0.279 µM)
14 | Cc1cncc(Nc2cc3nc4ccccc4n(-c4ccccc4)c-3c/c2=N\C2CCCCC2)c1 [TBI-082, 5-Phenyl-3-cyclohexylimino-2-(5-methyl-3-pyridyl)amino-3,5-dihydrophenazine] | 0.111 (≈ 0.242 µM)
15 | Cc1cncc(Nc2cc3nc4ccccc4n(-c4ccccc4)c-3c/c2=N\C2CCOCC2)c1 [TBI-083, 5-Phenyl-3-(4-tetrahydropyranyl)imino-2-(5-methyl-3-pyridyl)amino-3,5-dihydrophenazine] | 0.049 (≈ 0.106 µM)
16 | COC1CCC(/N=c2\cc3n(-c4ccccc4)c4ccccc4nc-3cc2Nc2cncc(C)c2)CC1 (stereo not shown) [TBI-084, 5-Phenyl-3-(4-methoxycyclohexyl)imino-2-(5-methyl-3-pyridyl)amino-3,5-dihydrophenazine] | 0.059 (≈ 0.121 µM)

Row | Structure (SMILES) | MIC [µg/mL]
17 | Cc1cncc(Nc2cc3nc4ccccc4n(-c4ccccc4)c-3c/c2=N\C2CCC(O)CC2)c1 (stereo not shown) [TBI-085, 5-Phenyl-3-(4-hydroxycyclohexyl)imino-2-(5-methyl-3-pyridyl)amino-3,5-dihydrophenazine] | 0.5 (≈ 1.05 µM)
18 | Cc1ccc(Nc2cc3nc4ccccc4n(-c4ccccc4)c-3c/c2=N\C2CCC(O)CC2)cn1 (stereo not shown) [TBI-086] | 0.5 (≈ 1.05 µM)
19 | COc1ncccc1Nc1cc2nc3ccccc3n(-c3ccccc3)c-2c/c1=N\C1CCC(O)CC1 (stereo not shown) [TBI-087, 5-Phenyl-3-(4-hydroxycyclohexyl)imino-2-(2-methoxy-3-pyridyl)amino-3,5-dihydrophenazine] | 0.466 (≈ 0.948 µM)
20 | CC(C)/N=c1\cc2n(-c3ccc(Br)cc3)c3ccccc3nc-2cc1Nc1cccnc1 [TBI-088, 5-(4-Bromophenyl)-3-(1-methylethyl)imino-2-(3-pyridyl)amino-3,5-dihydrophenazine] | 0.023 (≈ 0.0475 µM)
21 | Brc1ccc(-n2c3c/c(=N\C4CCCCC4)c(Nc4cccnc4)cc-3nc3ccccc32)cc1 [TBI-089, 5-(4-Bromophenyl)-3-cyclohexylimino-2-(3-pyridyl)amino-3,5-dihydrophenazine] | 0.021 (≈ 0.04 µM)
22 | Brc1ccc(-n2c3c/c(=N\C4CC4)c(Nc4cccnc4)cc-3nc3ccccc32)cc1 [TBI-090, 5-(4-Bromophenyl)-3-cyclopropylimino-2-(3-pyridyl)amino-3,5-dihydrophenazine] | 0.016 (≈ 0.0332 µM)
23 | Cc1ccc(Nc2cc3nc4ccccc4n(-c4ccc(F)cc4)c-3c/c2=N\C2CCSCC2)cn1 [TBI-90B, 5-(4-Fluorophenyl)-3-(4-tetrahydrothiopyranyl)imino-2-(6-methyl-3-pyridyl)amino-3,5-dihydrophenazine] | 0.397 (≈ 0.801 µM)
24 | COC1CCC(/N=c2\cc3n(-c4ccc(Br)cc4)c4ccccc4nc-3cc2Nc2cccnc2)CC1 (stereo not shown) [TBI-091, 5-(4-Bromophenyl)-3-(4-methoxycyclohexyl)imino-2-(3-pyridyl)amino-3,5-dihydrophenazine] | 0.062 (≈ 0.112 µM)
25 | Cc1ncccc1Nc1cc2nc3ccccc3n(-c3ccccc3)c-2c/c1=N\C1CCC(O)CC1 (stereo not shown) [TBI-092] | 0.5 (≈ 1.05 µM)
26 | Brc1ccc(-n2c3c/c(=N\C4CCOCC4)c(Nc4cccnc4)cc-3nc3ccccc32)cc1 [TBI-093, 5-(4-Bromophenyl)-3-(4-tetrahydropyranyl)imino-2-(3-pyridyl)amino-3,5-dihydrophenazine] | 0.163 (≈ 0.31 µM)
27 | OC1CCC(/N=c2\cc3n(-c4ccc(Br)cc4)c4ccccc4nc-3cc2Nc2cccnc2)CC1 (stereo not shown) [TBI-094, 5-(4-Bromophenyl)-3-(4-hydroxycyclohexyl)imino-2-(3-pyridyl)amino-3,5-dihydrophenazine] | 0.5 (≈ 0.925 µM)
28 | Cc1ccc(Nc2cc3nc4ccccc4n(-c4ccccc4)c-3c/c2=N\C2CC2)cn1 [TBI-095] | 0.048 (≈ 0.115 µM)
29 | Cc1cncc(Nc2cc3nc4ccccc4n(-c4ccccc4)c-3c/c2=N\C2CC2)c1 [TBI-096, 5-Phenyl-3-cyclopropylimino-2-(5-methyl-3-pyridyl)amino-3,5-dihydrophenazine] | 0.069 (≈ 0.165 µM)
30 | COc1ncccc1Nc1cc2nc3ccccc3n(-c3ccccc3)c-2c/c1=N\C1CC1 [TBI-097, 5-Phenyl-3-cyclopropylimino-2-(2-methoxy-3-pyridyl)amino-3,5-dihydrophenazine] | 0.032 (≈ 0.0738 µM)
31 | Brc1ccc(-n2c3c/c(=N\C4CCC4)c(Nc4cccnc4)cc-3nc3ccccc32)cc1 [TBI-098, 5-(4-Bromophenyl)-3-cyclobutylimino-2-(3-pyridyl)amino-3,5-dihydrophenazine] | 0.028 (≈ 0.0564 µM)
